# Results: ChEMBL document CHEMBL1134504, “Synthesis and cytotoxic activity of 7-oxo-7H-dibenz[f,ij]isoquinoline and 7-oxo-7H-benzo[e]perimidine derivatives” (J Med Chem, 2001)
# Experiments:
# Jurkat [1] = test: Inhibitory activity against Jurkat human leukemia cells; assay type: functional, cell-based
# [2] = system: Lewis lung carcinoma cell line; test: Inhibitory activity against Lewis lung carcinoma cells; assay type: functional, cell-based; conditions: Mus musculus
# P388 = test: Inhibitory activity against P388 murine leukemia cells; assay type: functional, cell-based; conditions: Mus musculus
# Jurkat [3] = test: Ratio of IC50 against Jurkat human leukemia amsacrine-resistant cells (JLA) to Jurkat human leukemia cells (JLC); assay type: functional
# Jurkat [4] = test: Ratio of IC50 against Jurkat human leukemia doxorubicin-resistant cells (JLD) to Jurkat human leukemia cells (JLC); assay type: functional
IC50 (Jurkat [1]) [nM],IC50 [2] [nM],IC50 (P388) [nM],IC50 ratio (Jurkat [3]),IC50 ratio (Jurkat [4]),SMILES
860,525,1000,0.7,0.7,CN(C)CCNc1nc2c3c(cccc3n1)C(=O)c1ccccc1-2
1240,1030,1500,1,0.9,CN(C)CCNC(=O)c1nc2c3c(cccc3n1)C(=O)c1ccccc1-2
238,128,130,0.7,0.8,CN(C)CCNC(=O)c1cc2c3c(cccc3n1)C(=O)c1cccc(Cl)c1-2
3360,2480,6200,0.6,0.8,CN(C)CC/N=C/c1cc2c3c(cccc3n1)C(=O)c1ccccc1-2
800,200,5800,0.9,1.6,CN(C)CCNC(=O)c1cc2c3c(ccc(Cl)c3n1)C(=O)c1c(C(=O)NCCN(C)C)cccc1-2
,,,85,74,COc1cc(NS(C)(=O)=O)ccc1Nc1c2ccccc2nc2ccccc12 [AMSACRINE]
1010,887,2300,0.8,0.8,CN(C)CCc1cc2c3c(cccc3n1)C(=O)c1ccccc1-2
550,98,110,0.8,1,CN(C)CC(CN(C)C)c1cc2c3c(cccc3n1)C(=O)c1ccccc1-2
566,472,790,0.2,0.8,CN(CCNC(=O)c1cc2c3c(cccc3n1)C(=O)c1ccccc1-2)CCN(C)CCNC(=O)c1cc2c3c(cccc3n1)C(=O)c1ccccc1-2
1420,1790,6600,1,1.1,Cc1cc2c3c(cccc3n1)C(=O)c1c(C(=O)NCCN(C)C)cccc1-2
758,483,800,1,0.9,CN(C)CCNC(=O)c1cc2c3c(cccc3n1)C(=O)c1c(Cl)cccc1-2
424,101,100,2.5,2.5,Cc1cc2c3c(cccc3n1)C(=O)c1cccc(C(=O)NCCN(C)C)c1-2
717,717,890,1.2,1,Cc1cc2c3c(ccc(C(=O)NCCN(C)C)c3n1)C(=O)c1ccccc1-2
422,830,340,1,1.1,O=C1c2ccccc2-c2cc(/C=N/NC3=NCCN3)nc3cccc1c23
1160,1080,1300,0.8,0.9,CN(C)CCNc1cc2c3c(cccc3n1)C(=O)c1ccccc1-2
165,35,600,0.2,0.8,CN(C)CCNC(=O)c1cc2c3c(cccc3n1)C(=O)c1ccccc1-2

SMILES,IC50 (Jurkat [1]) [nM],IC50 [2] [nM],IC50 (P388) [nM],IC50 ratio (Jurkat [3]),IC50 ratio (Jurkat [4])
CC[C@@]1(O)C(=O)OCc2c1cc1n(c2=O)Cc2cc3ccccc3nc2-1 [CAMPTOTHECIN],5.6,33,13,2,1.4
